Bridge positions count the residues as written; N and C are the ends. Peptide text beside a SMILES is read from it.
Test system: S. aureus ATCC 43300
Assay: Time-killing curves
Assay type: cell-based, Staphylococcus aureus
Details: for reduction of bacterial counts during the first two hours: initial inoculum 5.15 Log10 CFU/mL, MHB, 37 °C, 250 rpm, triplicate
Method: S. aureus ATCC 43300 was cultured to the logarithmic stage, MHB medium was used for adjusting the concentration of bacterial suspension, and PN7 (1×, 2× and 4× MIC), Plectasin (1×, 2× and 4× MIC) and 2× MIC vancomycin (the MIC was 1 μg/mL) were added into the suspensions containing 10^5 CFU/mL bacteria (after the count of viable bacteria detection, the initial inoculation amount was 5.15 Log10 CFU/mL), cultured at 37 °C and 250 rpm. A 100 CFU/mL is considered the detection limit. […] In contrast, the count was reduced by 1.6 Log10 CFU/mL after treatment with 2× MIC vancomycin, an approximately 66% population decrease of target pathogens compared with the PN7 treatment group at the same time point of the second hour. After 4 h, the colony number of the peptide treatment group was almost 0, while that of the vancomycin treatment group was 0 after 8 h, at 4 h later than the PN7 treatment. At 24 h, the number of colonies of only 1× MIC Plectasin treatment group rebounded, while no such phenomenon occurred in the other treatment groups.
S. aureus ATCC 43300 was cultured to the logarithmic stage. MHB medium adjusted the concentration of bacterial suspension, and PN7 (1×, 2× and 4× MIC) was added into the suspensions containing 10^5 CFU/mL bacteria, cultured at 37 °C and 250 rpm. 1×, 2×, 4× MIC Plectasin and 2× MIC vancomycin were used as positive controls, and the group treated without antibiotics was used as the blank controls. Then, 100 μL samples were taken at different time points and were continuously diluted and coated on MHA medium for colony counting. A 100 CFU/mL is considered the detection limit.

## CC[C@H](C)[C@@H]1NC(=O)[C@H](CO)NC(=O)[C@H](CCCCN)NC(=O)[C@@H]2CSSC[C@@H](C(=O)N[C@@H](Cc3ccc(O)cc3)C(=O)O)NC(=O)[C@H](CCCCN)NC(=O)[C@@H]3CSSC[C@H](NC(=O)[C@H](CCCNC(=N)N)NC(=O)CNC(=O)[C@H](CC(=O)O)NC(=O)[C@H](CC(=O)O)NC(=O)[C@H](CCC(=O)O)NC(=O)[C@H](Cc4ccc(O)cc4)NC(=O)[C@H](Cc4c[nH]c5ccccc45)NC(=O)[C@@H]4CCCN4C(=O)CNC(=O)[C@H](CC(N)=O)NC(=O)[C@@H](NC(=O)CNC(=O)[C@H](Cc4ccccc4)NC(=O)CN)CSSC[C@H](NC(=O)[C@H](Cc4ccc(O)cc4)NC(=O)CNC(=O)CNC(=O)[C@H](CCCCN)NC(=O)[C@H](Cc4ccc(O)cc4)NC(=O)CNC(=O)[C@H](CCCCN)NC1=O)C(=O)N[C@@H](C)C(=O)N[C@@H](CCCCN)C(=O)NCC(=O)NCC(=O)N[C@@H](Cc1ccccc1)C(=O)N[C@@H](C(C)C)C(=O)N3)C(=O)N[C@@H](Cc1c[nH]cn1)C(=O)N[C@@H](CC(N)=O)C(=O)N[C@@H](Cc1c[nH]cn1)C(=O)N2 [PN7] (H-GFGCNGPWYEDDGRCHNHCKSIKGYKGGYCAKGGFVCKCY-OH; disulfide 4-30, 15-37, 19-39 (inferred); N-terminus and C-terminus assumed)
1× MIC
  reduction of bacterial counts during the first two hours: 2.25 Log10 CFU/mL
2× MIC
  reduction of bacterial counts during the first two hours: 2.42 Log10 CFU/mL
4× MIC
  reduction of bacterial counts during the first two hours: 2.72 Log10 CFU/mL
time-kill, 2× MIC
  time to kill 99% of S. aureus ATCC 43300: ≤ 2 h

Source: PMC10451632, “Site Mutation Improves the Expression and Antimicrobial Properties of Fungal Defense” (Antibiotics, 2023)
